Assay results taken from article PMC7521041 (Current Genomics, 2020).

biological target: T1, Alr0765 (Nostoc sp. PCC 7120 = FACHB-418, UniProt A0ACD7RPC9); assay: FTIR amide I conformational change; assay type: binding; settings: 3 mM ligand, 1.3 mM protein, pH 8.0, 25 C
T1 sequence (A0ACD7RPC9 1-204): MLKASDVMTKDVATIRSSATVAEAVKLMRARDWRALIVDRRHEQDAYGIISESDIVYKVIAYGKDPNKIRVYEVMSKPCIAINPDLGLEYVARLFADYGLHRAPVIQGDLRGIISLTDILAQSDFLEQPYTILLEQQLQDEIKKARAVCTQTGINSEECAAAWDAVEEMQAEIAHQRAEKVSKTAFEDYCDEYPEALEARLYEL

| SMILES | FTIR amide I conformational change |
| --- | --- |
| Nc1ncnc2c1ncn2[C@@H]1O[C@H](COP(=O)(O)OP(=O)(O)O)[C@@H](O)[C@H]1O [ADP] | Alr0765 binds with adenosyl ligands, which led to conformational changes |
| Nc1ncnc2c1ncn2[C@@H]1O[C@H](COP(=O)(O)O)[C@@H](O)[C@H]1O [AMP] | Alr0765 binds with adenosyl ligands, which led to conformational changes |
| NC(=O)C1=CN([C@@H]2O[C@H](COP(=O)(O)OP(=O)(O)OC[C@H]3O[C@@H](n4cnc5c(N)ncnc54)[C@H](O)[C@@H]3O)[C@@H](O)[C@H]2O)C=CC1 [NADH] | Alr0765 binds with adenosyl ligands, which led to conformational changes |
